Experimental data published in patent publication US20120029075A1, “COMPOSITIONS CONTAINING C1 TO C7 ORGANIC ACID MONOGLYCERIDES AND GLYCEROL, THEIR PREPARATION AND USE AS ANTIBACTERIALS AND ANTI-MOULD AGENTS” (priority 2009, published 2012).
Like-named read-outs stand apart in the source and are kept apart here.

What was measured:
[1] = test system: Porcine Salmonella typhimurium; assay: In vitro antibacterial action, appearance of growth in Brain Heart Infusion, pH 6 (Tables 3 and 4); format: cell-based; settings: for Incubation time and appearance of growth: pH 6, inoculation 10^5, Brain Heart Infusion, 3 replications; for Concentration exhibiting inhibitory potency (no growth) in all three replicates: porcine Salmonella typhimurium, tested 5000-40000 ppm
[2] = test system: Penicillium spp; assay: In vitro sensitivity test towards filamentous fungi (Example 5), Penicillium; format: cell-based; settings: 5 ml fungal suspension + 5 ml product, 24 hours at 20±4° C.; read after 5 days; control 97000
Experimental: (§1) In Vitro Sensitivity Tests towards Filamentous Fungi (Moulds)
(§2) Strains of Aspergillus spp, Penicillium spp and Fusarium spp were utilized for the test, having been isolated and identified during diagnostic activity at the IZSLER section of Forli from complete feeds used in the chicken industry. To prepare the inoculum, mycelium of pure cultures of the tested strains was collected using a swab. The material thus collected was dissolved in a culture broth (BHI—Brain Heart Infusion). 5 ml of the fungal suspension and an equal amount of the product to be tested were placed in contact in a test tube. The test tube was incubated at 20±4° C. for 24 hours.
(§3) After this time period, the fungal suspension was then seeded and enumerated.
(§4) The control suspension was obtained by placing 5 ml of fungal suspension+5 ml of diluent (Ringer's lactate) into a test tube. Reading of the tests was carried out after a 5 day incubation period at 20±4° C.

[3] = test system: Aspergillus spp; assay: In vitro sensitivity test towards filamentous fungi (Example 5), Aspergillus; format: cell-based; settings: 5 ml fungal suspension + 5 ml product, 24 hours at 20±4° C.; read after 5 days; control 450000
Experimental: as §1, §2, §3, §4

[4] = test system: Fusarium spp; assay: In vitro sensitivity test towards filamentous fungi (Example 5), Fusarium; format: cell-based; settings: 5 ml fungal suspension + 5 ml product, 24 hours at 20±4° C.; read after 5 days; control 310000
Experimental: as §1, §2, §3, §4

[5] = test system: Campylobacter jejuni; assay: Antibacterial potency (Table 1), Campylobacter jejuni count
[6] = test system: Salmonella typhimurium; assay: Antibacterial potency (Table 1), Salmonella typhimurium count
[7] = test system: E. coli; assay: Antibacterial potency (Table 1), E. coli count; format: cell-based
[8] = test system: Clostridium perfringens CP27; format: cell-based; settings: for Incubation time and appearance of growth: inoculation 10^5, Brain Heart Infusion, 3 replications; for Concentration exhibiting inhibitory potency (no growth) in all three replicates: Clostridium perfringens, tested 500-4000 ppm
[9] = test system: E. coli; assay: In vitro antibacterial action, appearance of growth in Brain Heart Infusion, pH 5 (Table 5); settings: for Incubation time and appearance of growth: pH 5, inoculation 10^5, Brain Heart Infusion, 3 replications
[10] = pH 4.5, conc. used: Propionic acid 1:909, Butyric Acid 1:1000, Monobutyrin 43 1:100
[11] = pH 7, conc. used: Propionic acid 1:909, Butyric Acid 1:1000, Monopropionin 43 1:109, Monobutyrin 43 1:100

For CC(=O)O [Acetic acid], the “Incubation time and appearance of growth” value ([1]; 5000 ppm, Table 3) was “+ (+ for 24 hr)”, the “Incubation time and appearance of growth” value ([1]; 10000 ppm, Table 3) was “+ (+ for 24 hr)” and the “Incubation time and appearance of growth” value ([1]; 15000 ppm, Table 3) was “+ (+ for 24 hr)”. The “Incubation time and appearance of growth” value ([1]; 20000 ppm, Table 3) was “no growth”, the “Incubation time and appearance of growth” value ([1]; 25000 ppm, Table 3) was “no growth” and the “Incubation time and appearance of growth” value ([1]; 30000 ppm, Table 3) was “no growth”. The “Incubation time and appearance of growth” value ([1]; 40000 ppm, Table 3) was “no growth” and the “Concentration exhibiting inhibitory potency (no growth) in all three replicates” value ([1]; acetic acid series) was ≥ 20,000 ppm.

CCC(=O)O.N [Ammonium propionate] was tested, and the PENICILLIUM spp. count [2] was 100 cfu/ml, the ASPERGILLUS spp. count [3] was 1000 cfu/ml and the FUSARIUM spp. count [4] was 500 cfu/ml.

For CCCC(=O)O [Butyric Acid], the “Campylobacter jejuni (cfu/ml)” value [5, 10] was 2 × 10^1 cfu/ml, the “Campylobacter jejuni (cfu/ml)” value [5, 11] was 18 × 10^3 cfu/ml and the “Salmonella typhimurium (cfu/ml)” value [6, 10] was 25 × 10^3 cfu/ml. For the same molecule, the “Salmonella typhimurium (cfu/ml)” value [6, 11] was 65 × 10^4 cfu/ml, the “E. coli (cfu/ml)” value [7, 10] was 78 × 10^4 cfu/ml and the “E. coli (cfu/ml)” value [7, 11] was 106 × 10^4 cfu/ml. The “Incubation time and appearance of growth” value ([8]; 500 ppm) was “+ (+ for 24 hr)”, the “Incubation time and appearance of growth” value ([8]; 1000 ppm) was “+ (+ for 24 hr)” and the “Incubation time and appearance of growth” value ([8]; 1500 ppm) was “+ (+ for 24 hr)”. The “Incubation time and appearance of growth” value ([8]; 2000 ppm) was “++ (++ for 37 hr)”, the “Incubation time and appearance of growth” value ([8]; 2500 ppm) was “++ (++ for 37 hr)” and the “Incubation time and appearance of growth” value ([8]; 3000 ppm) was “no growth”. For the same molecule, the “Incubation time and appearance of growth” value ([8]; 4000 ppm) was “no growth” and the “Concentration exhibiting inhibitory potency (no growth) in all three replicates” value [8] was at least 3000 ppm.

O=C(O)/C=C/C(=O)O [Fumaric acid] was tested, and the “Incubation time and appearance of growth” value ([9]; 10000 ppm) was “+ (+ for 24 hr)”, the “Incubation time and appearance of growth” value ([9]; 20000 ppm) was “+ (+ for 24 hr)” and the “Incubation time and appearance of growth” value ([9]; 40000 ppm) was “+ (+ for 24 hr)”. The “Incubation time and appearance of growth” value ([9]; 60000 ppm) was “++ (++ for 37 hr)”, the “Incubation time and appearance of growth” value ([9]; 80000 ppm) was “++ (++ for 37 hr)” and the “Incubation time and appearance of growth” value ([9]; 90000 ppm) was “no growth”. For the same molecule, the “Incubation time and appearance of growth” value ([9]; 100000 ppm) was “no growth” and the “Concentration exhibiting inhibitory potency (no growth) in all three replicates” value ([9]; E. coli, tested 10000-100000 ppm) was ≥ 90,000 ppm.

In the case of CCC(=O)O [Propionic acid], the “Campylobacter jejuni (cfu/ml)” value [5, 10] is reported as 14 × 10^1 cfu/ml, the “Campylobacter jejuni (cfu/ml)” value [5, 11] is reported as 33 × 10^3 cfu/ml and the PENICILLIUM spp. count [2] is reported as under 100 cfu/ml. The “Salmonella typhimurium (cfu/ml)” value [6, 10] was 42 × 10^3 cfu/ml, the “Salmonella typhimurium (cfu/ml)” value [6, 11] was 11 × 10^4 cfu/ml and the ASPERGILLUS spp. count [3] was 300 cfu/ml. For the same molecule, the FUSARIUM spp. count [4] was 300 cfu/ml, the “E. coli (cfu/ml)” value [7, 10] was 13 × 10^4 cfu/ml and the “E. coli (cfu/ml)” value [7, 11] was 54 × 10^4 cfu/ml.

With Butyric acid monoglycerides the “Incubation time and appearance of growth” value ([8]; 500 ppm) was “+ (+ for 24 hr)”, the “Incubation time and appearance of growth” value ([8]; 1000 ppm) was “+ (+ for 24 hr)” and the “Incubation time and appearance of growth” value ([8]; 1500 ppm) was “+ (+ for 24 hr)”. The “Incubation time and appearance of growth” value ([8]; 2000 ppm) was “+ (+ for 24 hr)”, the “Incubation time and appearance of growth” value ([8]; 2500 ppm) was “+ (+ for 24 hr)” and the “Incubation time and appearance of growth” value ([8]; 3000 ppm) was “+ (+ for 24 hr)”. For the same molecule, the “Incubation time and appearance of growth” value ([8]; 4000 ppm) was “+ (+ for 24 hr)” and the “Concentration exhibiting inhibitory potency (no growth) in all three replicates” value [8] was “do not exhibit any inhibitory potency”.

Formic acid monoglycerides was tested, and the “Incubation time and appearance of growth” value ([1]; 5000 ppm, Table 4) was “+ (+ for 24 hr)”, the “Incubation time and appearance of growth” value ([1]; 10000 ppm, Table 4) was “+ (+ for 24 hr)” and the “Incubation time and appearance of growth” value ([1]; 15000 ppm, Table 4) was “+ (+ for 24 hr)”. For the same molecule, the “Incubation time and appearance of growth” value ([1]; 20000 ppm, Table 4) was “+ (+ for 24 hr)”, the “Incubation time and appearance of growth” value ([1]; 25000 ppm, Table 4) was “no growth” and the “Incubation time and appearance of growth” value ([1]; 30000 ppm, Table 4) was “no growth”. The “Incubation time and appearance of growth” value ([1]; 40000 ppm, Table 4) was “no growth” and the “Concentration exhibiting inhibitory potency (no growth) in all three replicates” value ([1]; formic acid series) was ≥ 25,000 ppm.
